# Like-named read-outs stand apart in the source and are kept apart here.
# Tests used:
# [1] = system: L3 animals; experiment: Abnormal locomotory behaviour of L3 animals on solid agar (extended SAR); assay type: in vivo, Caenorhabditis elegans; conditions: for pest or weed control at 3.75 µM / pest or weed control at 15 µM / pest or weed control at 60 µM: Caenorhabditis elegans
# Method: 20 animals were scored after either 1, 6 or 24 hours of exposure to drug (as indicated) per replicate. […] Data are reported as the mean % of animals with abnormal phenotype over 4 independent replicates.
# [2] = system: wild type fourth-stage C. elegans larvae (L4s); experiment: Locomotory defects (coiled and/or paralysis) in wild type fourth-stage C. elegans larvae on solid substrate; assay type: in vivo, Caenorhabditis elegans; conditions: 60 μM, after 60 min on solid substrate, L4 C. elegans
# Method: A preliminary first round of SAR analyses using analogs of exemplary compound Ia was performed and the analogs' ability to induce locomotory defects in wild type fourth-stage C. elegans larvae (L4s) was tested.
# If phenotype is observed, a dose-response analysis is performed.
# [3] = system: fish; experiment: Dose-response analysis in fish, cardiac defects; assay type: in vivo
# [4] = system: wild type C. elegans; experiment: Manual monitoring of locomotion phenotype of wild type C. elegans on solid agar containing the small molecule; assay type: in vivo, Caenorhabditis elegans; conditions: solid agar substrate
# Source text: The ability of the 64 Egl hits to modulate the normal sinusoidal locomotion of wild type C. elegans was then examined. The animal's behaviour over the course of several hours was manually monitored while the animal moved atop a solid agar substrate containing the small molecule. Many different genes govern the sinusoidal locomotion of wild type C. elegans, but their mutation can lead to qualitatively distinct locomotory phenotypes.
# [5] = 3.75 uM, 1 h exposure, L3, mean of 4 replicates
# [6] = 3.75 uM, 6 h exposure, L3, mean of 4 replicates
# [7] = 3.75 uM, 24 h exposure, L3, mean of 4 replicates
# [8] = 15 uM, 1 h exposure, L3, mean of 4 replicates
# [9] = 15 uM, 6 h exposure, L3, mean of 4 replicates
# [10] = 15 uM, 24 h exposure, L3, mean of 4 replicates
# [11] = 60 uM, 1 h exposure, L3, mean of 4 replicates
# [12] = 60 uM, 6 h exposure, L3, mean of 4 replicates
# [13] = 60 uM, 24 h exposure, L3, mean of 4 replicates
SMILES,Activity (%): percent of animals that show coiled and/or paralysis [2],"% any phene 1 h (conc.) 3.75 [1, 5] [%]","% any phene 6 h (conc.) 3.75 [1, 6] [%]","% any phene 24 h (conc.) 3.75 [1, 7] [%]","% any phene 1 h (conc.) 15 [1, 8] [%]","% any phene 6 h (conc.) 15 [1, 9] [%]","% any phene 24 h (conc.) 15 [1, 10] [%]","% any phene 1 h (conc.) 60 [1, 11] [%]","% any phene 6 h (conc.) 60 [1, 12] [%]","% any phene 24 h (conc.) 60 [1, 13] [%]",further results
CCC1CCC(N2CCN(c3ccc([N+](=O)[O-])cc3)CC2)CC1 (centres unmarked) [Ic],71% +/− 2.1,,,,,,,,,,"pest or weed control at 3.75 µM ([1]; 3.75 uM, 1 h exposure, L3, mean of 4 replicates, read-out: % any phene 1 h (conc.) 3.75): 29.2%; pest or weed control at 3.75 µM ([1]; 3.75 uM, 6 h exposure, L3, mean of 4 replicates, read-out: % any phene 6 h (conc.) 3.75): 8.3%; pest or weed control at 3.75 µM ([1]; 3.75 uM, 24 h exposure, L3, mean of 4 replicates, read-out: % any phene 24 h (conc.) 3.75): 0%; pest or weed control at 15 µM ([1]; 15 uM, 1 h exposure, L3, mean of 4 replicates, read-out: % any phene 1 h (conc.) 15): 95.9%; pest or weed control at 15 µM ([1]; 15 uM, 6 h exposure, L3, mean of 4 replicates, read-out: % any phene 6 h (conc.) 15): 80.8%; pest or weed control at 15 µM ([1]; 15 uM, 24 h exposure, L3, mean of 4 replicates, read-out: % any phene 24 h (conc.) 15): 89.2%; pest or weed control at 60 µM ([1]; 60 uM, 1 h exposure, L3, mean of 4 replicates, read-out: % any phene 1 h (conc.) 60): 100%; pest or weed control at 60 µM ([1]; 60 uM, 6 h exposure, L3, mean of 4 replicates, read-out: % any phene 6 h (conc.) 60): 100%; pest or weed control at 60 µM ([1]; 60 uM, 24 h exposure, L3, mean of 4 replicates, read-out: % any phene 24 h (conc.) 60): 100%"
CC1CCC(N2CCN(c3ccc([N+](=O)[O-])cc3)CC2)CC1 (centres unmarked) [Ib],87% +/− 3.7,,,,,,,,,,"pest or weed control at 3.75 µM ([1]; 1 h, read-out: % any phene 1 h (conc.) 3.75): 3.3%; pest or weed control at 15 µM ([1]; 1 h, read-out: % any phene 1 h (conc.) 15): 97.5%; pest or weed control at 60 µM ([1]; 1 h, read-out: % any phene 1 h (conc.) 60): 100%; pest or weed control at 3.75 µM ([1]; 6 h, read-out: % any phene 6 h (conc.) 3.75): 0%; pest or weed control at 15 µM ([1]; 6 h, read-out: % any phene 6 h (conc.) 15): 93.3%; pest or weed control at 60 µM ([1]; 6 h, read-out: % any phene 6 h (conc.) 60): 100%; pest or weed control at 3.75 µM ([1]; 24 h, read-out: % any phene 24 h (conc.) 3.75): 0%; pest or weed control at 15 µM ([1]; 24 h, read-out: % any phene 24 h (conc.) 15): 73.3%; pest or weed control at 60 µM ([1]; 24 h, read-out: % any phene 24 h (conc.) 60): 100%"
c1ccc(N2CCN(CC3CCCCC3)CC2)cc1 [Ii],19% +/− 8.1,16.2,0.0,0.0,39.2,0.8,0.0,84.2,44.2,20.5,
O=[N+]([O-])c1ccc(N2CCN(CC3CC=CCC3)CC2)cc1 (centres unmarked) [Ie],19% +/− 8.0,15.0,0.0,0.0,45.0,56.7,0.0,94.2,80.8,57.5,cardiac defects in fish [3]: strongest cardiac defects; locomotory phenotype induced [4]: ‘severe’ snake-like coiler phenotype and paralysis
O=[N+]([O-])c1ccc(N2CCN(Cc3ccccc3)CC2)cc1 [Im],0.00%,0.0,0.0,0.0,7.5,3.3,0.0,44.2,30.8,0.0,
N#Cc1ccc(N2CCN(CC3CCCC3)CC2)cc1 [Ip],41% +/− 7.4,0.8,0.0,0.0,29.2,10.0,0.0,91.3,42.5,62.5,
